Data on 21 compounds can be found in patent US10800739B2, “4-carboxamido-isoindolinone derivatives as selective PARP-1 inhibitors” (NERVIANO MEDICAL SCIENCES S.r.l, priority 2012, dated 2020).

Structures are written as SMILES. Where a name gives a salt, the structure may show the parent alone. Read-outs that look alike come from different tables or passages of the source.

Data set [1] can be described thus: Pharmacokinetics and oral bioavailability in the mouse. It is filed as in vivo. The conditions noted are these: for F on AUC: 10 mg/kg, ratio of oral to IV dose-normalized AUC; for clearance / Vd / AUC / Cmax / half-life: male, Balb Nu/Nu, plasma, mean value; for clearance / Vd: 10 mg/kg intravenous bolus; for clearance: read-out: Cl (IV bolus); for Vd: read-out: Vdss (IV bolus); for AUC / Cmax / half-life: 10 mg/kg oral; for half-life: read-out: T½ (oral) (converted).

Data set [2] has as its system hydrogen peroxide induced PAR formation in HeLa cells. The data set can be described thus: PAR assay: inhibition of hydrogen peroxide induced PAR formation in HeLa cells. The conditions noted are these: Homo sapiens, read-out: PAR assay (IC50 μM).
Data set [3] has as its target PARP-1 (Homo sapiens (Human), UniProt P09874). The data set can be described thus: Fluorescence polarization displacement assay with probe of formula (IP), PARP-1. In kind it is binding. The conditions noted are these: for DC50: probe P1. Background: Polarisation of emitted light reports the rotation of a fluorescent probe.
Description: (§1) Affinity evaluation of the tested compounds and their selectivity with respect to the different PARP isoforms of interest was assessed in a displacement assay.
(§2) b) comparing the polarization signal generated in the absence of the test compound with the one generated in the presence of different concentrations of the test compound, and
(§3) c) evaluating the ability of the test compound to displace the compound of formula (IP) as defined above indicated from a decreased fluorescence polarization level.
(§4) The 5H-phenanthridin-6-one-derived probe (IP) was selected for its capability of binding to the PARP proteins, both encompassing full-length native proteins and fragments thereof.
(§5) The polarization signal can be measured, e.g., by a plate reader such as the Saphire2 (Tecan). Data analysis was performed, e.g., by using the Dynafit software. Displacement data were also fitted, e.g., by using Excel spreadsheet (Microsoft Inc. Seattle, USA) to a four parameter logistic model (4PL), or Hill-Slope model. The assay was used to test compounds of the present invention. The displacement ability of the test compounds of formula (I) is in correlation with the compounds affinity for the NAD pocket of the enzyme.
The target in data set [4] is PARP-2 (Homo sapiens (Human), UniProt Q9UGN5). The data set can be described thus: Fluorescence polarization displacement assay with probe of formula (IP), PARP-2. Particulars: probe P1. In kind it is binding.
Description: as §1, §2, §3, §4, §5
Data set [5] has as its target PARP-3 (Homo sapiens (Human), UniProt Q9Y6F1). The data set can be described thus: Fluorescence polarization displacement assay with probe of formula (IP), PARP-3. It is filed as binding.
Description: as §1, §2, §3, §4, §5
In data set [6] the test system is Capan-1 human pancreatic cancer tumors. The data set can be described thus: In vivo efficacy as single agent, Capan-1 BRCA-2 mutated mouse model. Particulars: 75 mg/kg oral daily; for Max TGI (%): single agent, Capan-1 xenograft; for Toxicity: body weight reduction, out of 7 mice treated.
Excerpt: Balb, athymic Nu/Nu male mice, from Harlan (Italy), were maintained in agreement with the European Communities Council Directive no. 86/609/EEC concerning the protection of animals used for experimental or other scientific purposes, in cages with paper filter cover, food and bedding sterilized and acidified water. Fragments of Capan-1 human pancreatic cancer tumors were implanted subcutaneously. […] Each group included seven animals. The treatment started one day after randomization. Compound of formula (I) was administered by oral route as a methocel suspension at the indicated doses and times. Tumor dimension was measured regularly by calipers during the experiments and tumor mass was calculated as described in Simeoni M. et al., Cancer Res 64, 1094-1101 (2004).
The subject of data set [7] is BRCA-mutated cancer. The conditions noted are these: 19 patients with BRCA mutations and breast, ovarian and prostate cancer, phase I; cited from earlier work.
The mark [8] stands for this setting: probe P1; read-out: PARP-3 (DC50 μM).

Sequence of PARP-1 (P09874 whole entry): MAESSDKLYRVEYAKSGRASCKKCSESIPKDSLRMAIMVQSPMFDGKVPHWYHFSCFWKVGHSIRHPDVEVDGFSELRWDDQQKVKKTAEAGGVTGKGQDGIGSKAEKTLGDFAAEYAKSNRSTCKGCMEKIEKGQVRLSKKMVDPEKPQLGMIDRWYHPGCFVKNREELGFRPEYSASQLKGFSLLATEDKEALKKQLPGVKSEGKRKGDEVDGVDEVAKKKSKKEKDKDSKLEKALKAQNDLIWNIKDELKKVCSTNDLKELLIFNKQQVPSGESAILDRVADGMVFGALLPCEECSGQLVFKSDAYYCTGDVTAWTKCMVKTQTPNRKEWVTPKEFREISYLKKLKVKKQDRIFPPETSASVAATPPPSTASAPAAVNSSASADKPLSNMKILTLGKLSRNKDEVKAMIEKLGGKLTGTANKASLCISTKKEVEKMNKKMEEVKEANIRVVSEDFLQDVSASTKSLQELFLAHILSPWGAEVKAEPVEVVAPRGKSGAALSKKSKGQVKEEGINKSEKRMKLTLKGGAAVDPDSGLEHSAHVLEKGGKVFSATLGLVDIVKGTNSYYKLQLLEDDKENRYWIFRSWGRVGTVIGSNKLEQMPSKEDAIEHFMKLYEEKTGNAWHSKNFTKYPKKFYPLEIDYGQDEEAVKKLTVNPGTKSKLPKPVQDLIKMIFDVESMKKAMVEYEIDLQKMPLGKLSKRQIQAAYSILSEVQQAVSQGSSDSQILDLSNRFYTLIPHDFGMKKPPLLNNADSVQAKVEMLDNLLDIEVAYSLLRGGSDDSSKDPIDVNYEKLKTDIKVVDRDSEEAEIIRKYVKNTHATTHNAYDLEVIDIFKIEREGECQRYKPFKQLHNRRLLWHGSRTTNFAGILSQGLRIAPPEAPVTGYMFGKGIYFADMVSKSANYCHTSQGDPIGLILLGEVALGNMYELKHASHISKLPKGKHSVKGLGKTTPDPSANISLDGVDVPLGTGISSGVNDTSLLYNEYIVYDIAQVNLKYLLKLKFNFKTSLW
Sequence of PARP-3 (Q9Y6F1 whole entry): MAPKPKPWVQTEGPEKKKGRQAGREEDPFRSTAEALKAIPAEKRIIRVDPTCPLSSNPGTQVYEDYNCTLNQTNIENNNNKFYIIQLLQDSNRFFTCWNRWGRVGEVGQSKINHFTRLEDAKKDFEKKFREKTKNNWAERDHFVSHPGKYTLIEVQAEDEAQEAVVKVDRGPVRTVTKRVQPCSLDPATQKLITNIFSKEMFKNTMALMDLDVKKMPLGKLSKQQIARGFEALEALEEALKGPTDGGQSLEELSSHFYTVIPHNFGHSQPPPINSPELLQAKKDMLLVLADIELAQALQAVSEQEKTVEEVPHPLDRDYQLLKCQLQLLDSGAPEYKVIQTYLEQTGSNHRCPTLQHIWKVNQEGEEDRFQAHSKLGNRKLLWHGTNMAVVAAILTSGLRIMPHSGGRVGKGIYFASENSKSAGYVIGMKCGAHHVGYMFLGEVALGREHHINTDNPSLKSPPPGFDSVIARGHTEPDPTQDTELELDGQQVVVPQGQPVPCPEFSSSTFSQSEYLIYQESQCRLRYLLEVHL
Sequence of PARP-2 (Q9UGN5 whole entry): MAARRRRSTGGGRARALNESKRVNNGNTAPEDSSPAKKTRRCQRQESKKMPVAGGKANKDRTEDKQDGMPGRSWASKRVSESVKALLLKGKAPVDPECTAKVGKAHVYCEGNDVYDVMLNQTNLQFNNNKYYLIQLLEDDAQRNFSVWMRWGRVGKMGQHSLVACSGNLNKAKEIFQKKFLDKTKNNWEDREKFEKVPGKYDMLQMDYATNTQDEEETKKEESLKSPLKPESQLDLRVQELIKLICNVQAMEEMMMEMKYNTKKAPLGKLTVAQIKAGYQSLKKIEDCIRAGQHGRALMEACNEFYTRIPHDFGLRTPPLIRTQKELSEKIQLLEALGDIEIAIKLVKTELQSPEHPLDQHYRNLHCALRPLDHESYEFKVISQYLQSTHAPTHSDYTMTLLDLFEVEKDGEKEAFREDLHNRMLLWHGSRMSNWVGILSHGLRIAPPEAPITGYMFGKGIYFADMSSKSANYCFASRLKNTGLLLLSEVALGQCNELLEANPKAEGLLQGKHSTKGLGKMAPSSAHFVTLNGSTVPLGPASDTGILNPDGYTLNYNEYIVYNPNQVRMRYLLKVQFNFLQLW

`NC(=O)c1cccc2c1C(=O)N(CCN1CCc3ccccc3C1)C2` [(3), 2-[2-(3,4-dihydro-1H-isoquinolin-2-yl)-ethyl]-3-oxo-2,3-dihydro-1H-isoindole-4-carboxylic Acid Amide]: in data set [1], the “F on AUC” value came to 30%, the clearance amounted to 63.1 mL/min/kg, the Vd turned out to be 1.54 L/kg and the AUC was determined as 2.51 µM·h. Further, in data set [1], the Cmax worked out at 3.06 µM and the half-life is 40.8 min.
As for `NC(=O)c1cccc2c1C(=O)N(C1CCN(Cc3cccs3)CC1)C2` [(9), 3-oxo-2-(1-thiophen-2-ylmethyl-piperidin-4-yl)-2,3-dihydro-1H-isoindole-4-carboxylic Acid Amide], the IC50 in data set [2] came to 1.4 µM.
In data set [3], `NC(=O)c1cccc2c1C(=O)N(C1CCN(C3CCCCC3)CC1)C2` [(11), 2-(1-cyclohexyl-piperidin-4-yl)-3-oxo-2,3-dihydro-1H-isoindole-4-carboxylic Acid Amide] yielded a Kd below 0.01 µM and a DC50 below 0.25 µM. Further, in data set [4], the DC50 amounted to 2.53 µM and binding was put at a Kd of 1.4 µM. In addition, the DC50 in data set [5] (setting [8]) was found to be 2.06 µM. Further, in data set [1], the “F on AUC” value stood at 100%, the clearance was determined as 41.3 mL/min/kg, the Vd amounted to 4.47 L/kg and the AUC came out at 20.4 µM·h. Also, in data set [1], the peak level (Cmax) was 3.87 µM and the half-life is 163 min. Besides, in data set [6], the “Max TGI (%)” value is on record as 42% and the Toxicity is on record as 0/7. Further, the IC50 in data set [2] was found to be 0.02 µM.
In the case of `NC(=O)c1cccc2c1C(=O)N(C1CCN(Cc3ccco3)CC1)C2` [(12), 2-(1-furan-2-ylmethyl-piperidin-4-yl)-3-oxo-2,3-dihydro-1H-isoindole-4-carboxylic Acid Amide], the IC50 in data set [2] amounted to 3.9 µM.
Regarding `NC(=O)c1cccc2c1C(=O)N(C1CCN(Cc3ccoc3)CC1)C2` [(14), 2-(1-furan-3-ylmethyl-piperidin-4-yl)-3-oxo-2,3-dihydro-1H-isoindole-4-carboxylic Acid Amide], in data set [1], the “F on AUC” value worked out at 57%, the clearance was determined as 81.8 mL/min/kg, the Vd was found to be 2.68 L/kg and the exposure (AUC) amounted to 3.22 µM·h. Also, in data set [1], the concentration peaked (Cmax) at 2.29 µM and the half-life is 53.4 min. For the same compound, the IC50 in data set [2] was determined as 0.011 µM.
As for `NC(=O)c1cccc2c1C(=O)N(C1CCN(Cc3ccccn3)CC1)C2` [(15), 3-oxo-2-(1-pyridin-2-ylmethyl-piperidin-4-yl)-2,3-dihydro-1H-isoindole-4-carboxylic Acid Amide], the DC50 in data set [5] (setting [8]) was 0.9 µM. Besides, in data set [1], the “F on AUC” value was found to be 68%, the clearance was found to be 16.9 mL/min/kg, the Vd was determined as 0.79 L/kg and the AUC was found to be 19.2 µM·h. Also, in data set [1], the Cmax turned out to be 8.73 µM and the half-life is 60.6 min. Further, in data set [6], the “Max TGI (%)” value was 54% and the Toxicity was 0/7.
With `NC(=O)c1cccc2c1C(=O)N(C1CCN(Cc3ccc[nH]3)CC1)C2` [(16), 3-oxo-2-[1-(1H-pyrrol-2-ylmethyl)-piperidin-4-yl]-2,3-dihydro-1H-isoindole-4-carboxylic Acid Amide], in data set [1], the “F on AUC” value is reported as 37%, the clearance worked out at 79.3 mL/min/kg, the Vd was determined as 2.51 L/kg and the AUC turned out to be 2.13 µM·h. In data set [1], the concentration peaked (Cmax) at 2.97 µM and the half-life was 37.8 min. Besides, in data set [2], the IC50 was determined as 0.02 µM.
For the compound `NC(=O)c1cccc2c1C(=O)N(CCCc1ccccc1)C2` [(17), 3-oxo-2-(3-phenyl-propyl)-2,3-dihydro-1H-isoindole-4-carboxylic Acid Amide], the concentration for half-maximal inhibition (IC50) in data set [2] is 1.51 µM.
As for `NC(=O)c1cccc2c1C(=O)N(CCCN1CCc3ccccc3C1)C2` [(19), 2-[3-(3,4-dihydro-1H-isoquinolin-2-yl)-propyl]-3-oxo-2,3-dihydro-1H-isoindole-4-carboxylic Acid Amide], in data set [3], the Kd is below 0.03 µM and the DC50 was below 0.25 µM. Further, the IC50 in data set [2] came to 0.33 µM.
Regarding `NC(=O)c1cccc2c1C(=O)N(CCCN1CCCc3ccccc31)C2` [(20), 2-[3-(3,4-dihydro-2H-quinolin-1-yl)-propyl]-3-oxo-2,3-dihydro-1H-isoindole-4-carboxylic Acid Amide], in data set [3], the Kd was below 0.03 µM and the DC50 was below 0.25 µM. Further, in data set [4], the DC50 turned out to be 0.58 µM and the Kd worked out at 0.19 µM. Also, in data set [2], the 50% inhibitory concentration (IC50) worked out at 0.83 µM.
With `CN1CCN(CCCN2Cc3cccc(C(N)=O)c3C2=O)CC1` [(21), 2-[3-(4-methyl-piperazin-1-yl)-propyl]-3-oxo-2,3-dihydro-1H-isoindole-4-carboxylic Acid Amide], the DC50 in data set [3] is 0.28 µM. Besides, the IC50 in data set [2] amounted to 0.6 µM.
In data set [3], `NC(=O)c1cccc2c1C(=O)N(CCCN1CCN(c3ccccc3)CC1)C2` [(22), 3-oxo-2-[3-(4-phenyl-piperazin-1-yl)-propyl]-23-dihydro-1H-isoindole-4-carboxylic Acid Amide] gave a dissociation constant (Kd) below 0.03 µM and a DC50 below 0.25 µM. The same compound returned a DC50 in data set [4] of 2.12 µM. The IC50 in data set [2] stood at 0.4 µM.
For `NC(=O)c1cc(F)cc2c1C(=O)N(CCCN1CCOCC1)C2` [(23), 6-Fluoro-2-(3-morpholin-4-yl-propyl)-3-oxo-2,3-dihydro-1H-isoindole-4-carboxylic Acid Amide] the same measures were below 0.03 µM, below 0.25 µM, 2 µM and 0.4 µM.
Regarding `NC(=O)c1cccc2c1C(=O)N(C1CCN(CC3CC3)CC1)C2` [(24), 2-(1-cyclopropylmethyl-piperidin-4-yl)-3-oxo-2,3-dihydro-1H-isoindole-4-carboxylic Acid Amide], in data set [2], the IC50 came to 0.11 µM.
In the case of `CC1CCCC(C)N1CCCN1Cc2cccc(C(N)=O)c2C1=O` (stereo not shown) [(27), 2-[3-(2,6-dimethyl-piperidin-1-yl)-propyl]-3-oxo-2,3-dihydro-1H-isoindole-4-carboxylic Acid Amide Hydrochloride], the DC50 in data set [4] is above 10 µM.
Turning to `NC(=O)c1cccc2c1C(=O)N(C1CCN(C3CCOCC3)CC1)C2` [(28), 3-ox-2-[1-(tetrahydro-pyran-4-yl)-piperidin-4-yl]-2,3-dihydro-1H-isoindole-4-carboxylic Acid Amide], the DC50 in data set [5] (setting [8]) was determined as 5.48 µM.
`NC(=O)c1cc(F)cc2c1C(=O)N(C1CCN(C3CCCCC3)CC1)C2` [(29), 2-(1-cyclohexyl-piperidin-4-yl)-6-fluoro-3-oxo-2,3-dihydro-1H-isoindole-4-carboxylic acid amide] registered a Kd in data set [3] below 0.01 µM. For the same compound, the DC50 in data set [3] was below 0.25 µM; in data set [4], 2.92 µM; in data set [5] (read-out: PARP-3 (DC50 μM); probe P1), 1 µM. Also, the IC50 in data set [2] is 0.5 µM.
With `NC(=O)c1cccc2c1C(=O)N(C1CCN(Cc3ccccc3)CC1)C2` [(30), 2-(1-benzyl-piperidin-4-yl)-3-oxo-2,3-dihydro-1H-isoindole-4-carboxylic Acid Amide], the DC50 in data set [3] is below 0.25 µM; in data set [5] (setting [8]) it was 0.35 µM.
On to `NC(=O)c1cccc2c1C(=O)N(CCC1CCN(Cc3ccccc3)CC1)C2` [(31), 2-[2-(1-benzyl-piperidin-4-yl)-ethyl]-3-oxo-2,3-dihydro-1H-isoindole-4-carboxylic Acid Amide Hydrochloride], for which the DC50 in data set [3] was below 0.25 µM; in data set [4], above 10 µM. Besides, the IC50 in data set [2] was determined as 0.2 µM.
Consider `NC(=O)c1cccc2c1C(=O)N(CCCN1CCC(Cc3ccccc3)CC1)C2` [(32), 2-[3-(4-benzyl-piperidin-1-yl)-propyl]-3-oxo-2,3-dihydro-1H-isoindole-4-carboxylic Acid Amide], for which the IC50 in data set [2] turned out to be 0.17 µM.
For the compound `O=C(c1cc(Cc2n[nH]c(=O)c3ccccc23)ccc1F)N1CCN(C(=O)C2CC2)CC1` [Olaparib], in data set [7], the objective response rate is 47%.

The term AUC denotes the area under the concentration-time curve, a measure of exposure. The Cmax is the maximum level reached in the sampled fluid or tissue. The term IC50 denotes the concentration needed to halve the response being measured. In general, Kd refers to the equilibrium constant for the complex coming apart. High values mean a looser complex, low ones a tighter complex.
